Read-outs that look alike come from different tables or passages of the source.
Key:
Assay type in all cases: biochemical
[1] = target: T1, PglC (Cj) (Campylobacter jejuni, UniProt Q0P9D0); test: PGT activity assay with UDP-diNAcBac, percent inhibition at […]; conditions: read-out: % inhibition at 100 μM
T1 sequence (Q0P9D0 1-200): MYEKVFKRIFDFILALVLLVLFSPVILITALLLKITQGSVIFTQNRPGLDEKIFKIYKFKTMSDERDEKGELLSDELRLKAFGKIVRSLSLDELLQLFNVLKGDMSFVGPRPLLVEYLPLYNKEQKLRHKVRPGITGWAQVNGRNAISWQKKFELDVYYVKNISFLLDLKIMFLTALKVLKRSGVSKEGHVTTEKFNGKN

[2] = target: T1, PglC (Cj)
[3] = target: T1, PglC (Cj); test: PGT activity assay with UDP-diNAcBac, percent inhibition at […]; conditions: read-out: % inhibition at 100 μM; remark: listed apart in the source
[4] = target: T2, WecA (Tm) (Thermotoga maritima, UniProt Q9X1N5); test: PGT activity assay
T2 sequence (Q9X1N5 1-291): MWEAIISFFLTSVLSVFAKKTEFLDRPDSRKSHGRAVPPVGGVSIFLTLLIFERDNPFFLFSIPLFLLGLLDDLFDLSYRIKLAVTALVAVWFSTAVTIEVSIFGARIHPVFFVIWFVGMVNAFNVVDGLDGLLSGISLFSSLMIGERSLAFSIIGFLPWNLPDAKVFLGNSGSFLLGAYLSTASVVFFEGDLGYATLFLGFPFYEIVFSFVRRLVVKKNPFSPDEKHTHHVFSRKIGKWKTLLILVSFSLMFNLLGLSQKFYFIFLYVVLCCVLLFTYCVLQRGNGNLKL

**Q.** With `O=c1ccn([C@@H]2O[C@H](COP(=O)(O)C(F)(F)P(=O)(O)O)[C@@H](O)[C@H]2O)c(=O)[nH]1` [compound 3, H-CF2] as the compound, how does the inhibition at 100 µM [1] read?
**A.** Its inhibition at 100 µM is 33 ± 6%.

**Q.** Which IC50 [2] does the source give for `CC(=O)N[C@H]1[C@@H](OP(=O)(O)C(F)(F)P(=O)(O)OC[C@H]2O[C@@H](n3ccc(=O)[nH]c3=O)[C@H](O)[C@@H]2O)O[C@H](CO)[C@@H](O)[C@@H]1O` [compound 4, α-GlcNAc-CF2] here?
**A.** The IC50 was 32 ± 5.3 µM.

**Q.** Which inhibition at 100 µM [3] does the source give for `CC(=O)N[C@H]1[C@@H](OP(=O)(O)[C@@H](F)P(=O)(O)OC[C@H]2O[C@@H](n3ccc(=O)[nH]c3=O)[C@H](O)[C@@H]2O)O[C@H](CO)[C@@H](O)[C@@H]1O` [compound 7, α-GlcNAc-(S)-CHF] here?
**A.** Its inhibition at 100 µM is 52 ± 10%.

**Q.** For `CC(=O)N[C@H]1[C@@H](OP(=O)(O)CP(=O)(O)OC[C@H]2O[C@@H](n3ccc(=O)[nH]c3=O)[C@H](O)[C@@H]2O)O[C@H](CO)[C@@H](O)[C@@H]1O` [compound 11, α-GlcNAc-CH2], which inhibition at 100 µM [3] is on record?
**A.** The inhibition at 100 µM was 28 ± 12%.

**Q.** What about the IC50 [4] of the same compound?
**A.** The IC50 was 41 ± 10 µM.
